Laboratory results published in ChEMBL document CHEMBL5321293, “Discovery of ERD-3111 as a Potent and Orally Efficacious Estrogen Receptor PROTAC Degrader with Strong Antitumor Activity” (J Med Chem, 2023).

Legend:
[1] = biological target: T1, Protein cereblon/Estrogen receptor (Homo sapiens, UniProt P03372+Q96SW2); assay: Protac activity at human ERalpha in human MCF7 cells assessed as protein degradation incubated for 12 hrs by ICW blot assay; type: cell-based
Target sequence in this assay (P03372 whole entry): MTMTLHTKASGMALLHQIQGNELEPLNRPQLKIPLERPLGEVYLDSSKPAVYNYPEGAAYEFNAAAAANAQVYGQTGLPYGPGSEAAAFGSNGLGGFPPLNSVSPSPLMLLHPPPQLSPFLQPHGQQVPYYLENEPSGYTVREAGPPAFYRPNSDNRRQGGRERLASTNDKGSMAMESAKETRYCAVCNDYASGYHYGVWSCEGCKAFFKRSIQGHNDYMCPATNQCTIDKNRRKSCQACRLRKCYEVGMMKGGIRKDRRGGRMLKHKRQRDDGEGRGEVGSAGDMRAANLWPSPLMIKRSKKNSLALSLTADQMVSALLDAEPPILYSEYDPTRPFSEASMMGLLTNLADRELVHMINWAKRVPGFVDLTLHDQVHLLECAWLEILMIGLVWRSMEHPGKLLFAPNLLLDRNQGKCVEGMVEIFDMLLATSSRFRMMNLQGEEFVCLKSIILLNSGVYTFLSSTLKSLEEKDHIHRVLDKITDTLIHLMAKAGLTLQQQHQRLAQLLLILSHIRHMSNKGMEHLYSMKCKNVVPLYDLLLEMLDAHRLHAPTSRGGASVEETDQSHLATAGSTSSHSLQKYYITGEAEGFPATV
Target sequence in this assay (Q96SW2 whole entry): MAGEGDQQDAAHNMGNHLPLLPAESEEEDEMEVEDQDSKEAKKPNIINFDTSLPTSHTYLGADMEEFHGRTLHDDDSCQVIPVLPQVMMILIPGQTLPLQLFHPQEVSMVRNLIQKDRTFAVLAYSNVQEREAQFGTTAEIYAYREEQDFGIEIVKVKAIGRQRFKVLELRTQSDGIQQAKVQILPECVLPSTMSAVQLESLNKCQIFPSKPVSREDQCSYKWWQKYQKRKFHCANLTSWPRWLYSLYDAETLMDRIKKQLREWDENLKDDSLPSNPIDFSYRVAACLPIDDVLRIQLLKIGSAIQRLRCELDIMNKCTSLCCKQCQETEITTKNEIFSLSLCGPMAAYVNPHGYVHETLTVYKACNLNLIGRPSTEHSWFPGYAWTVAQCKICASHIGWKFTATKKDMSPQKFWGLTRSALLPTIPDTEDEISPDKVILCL

[2] = biological target: T1, Protein cereblon/Estrogen receptor; assay: Protac activity at human ERalpha in human MCF7 cells assessed as induction of ERalpha degradation by measuring maximum efficacy at 1 uM incubated for 12 hrs by ICW blot assay relative to control; type: cell-based
Target sequence in this assay (P03372 whole entry, looked up): as the sequence (P03372 whole entry) above
Target sequence in this assay (Q96SW2 whole entry, looked up): as the sequence (Q96SW2 whole entry) above

[3] = Volume of distribution at steady state in Sprague-Dawley rat at 1 mg/kg, iv and measured upto 24 hrs by LC-MS/MS analysis; conditions: in vivo
[4] = Clearance in Sprague-Dawley rat at 1 mg/kg, iv and measured upto 24 hrs by LC-MS/MS analysis; conditions: in vivo
[5] = Half life in Sprague-Dawley rat at 3 mg/kg, po and measured upto 24 hrs by LC-MS/MS analysis; conditions: in vivo
[6] = AUC in Sprague-Dawley rat at 3 mg/kg, po and measured upto 24 hrs by LC-MS/MS analysis; type: ADME, organism-based; design: dose 3 mg/kg, time < 24 hrs, route po; conditions: Sprague-Dawley, in vivo
[7] = in vivo; conditions: Sprague-Dawley, rat, po, 3 mg/kg
[8] = in vivo; conditions: Sprague-Dawley, rat, po, 3 mg/kg; remark: listed apart in the source

| Compound | DC50 [1] | Emax [2] | also measured |
| --- | --- | --- | --- |
| O=C1CCC(N2C(=O)c3cc4c(cc3C2=O)CN(CC(=O)N2CC3(CCN(c5ccc([C@@H]6c7ccc(O)cc7CC[C@@H]6c6ccccc6)cc5)C3)C2)C4)C(=O)N1 (some centres not stated) | 4 nM | 63% | – |
| O=C1CCC(N2C(=O)c3cc4c(cc3C2=O)CN(C(=O)CN2CCC3(CC2)CCN(c2ccc([C@@H]5c6ccc(O)cc6CC[C@@H]5c5ccccc5)cc2)CC3)C4)C(=O)N1 (some centres not stated) | > 1000 nM | 16% | – |
| O=C1CCC(N2C(=O)c3cc4c(cc3C2=O)CN(CC2CN(C(=O)C3CCN(c5ccc([C@@H]6c7ccc(O)cc7CC[C@@H]6c6ccccc6)cc5)CC3)C2)C4)C(=O)N1 (some centres not stated) | 6 nM | 84% | – |
| O=C1CCC(N2C(=O)c3cc4c(cc3C2=O)CN(CC2CCN(CC3CN(c5ccc([C@@H]6c7ccc(O)cc7CC[C@@H]6c6ccccc6)cc5)C3)CC2)C4)C(=O)N1 (some centres not stated) | 19 nM | 64% | – |
| O=C1CCC(N2C(=O)c3cc4c(cc3C2=O)CN(C(=O)C2CCN(CC3CCN(c5ccc([C@@H]6c7ccc(O)cc7CC[C@@H]6c6ccccc6)cc5)CC3)CC2)C4)C(=O)N1 (some centres not stated) | 9.7 nM | 63% | – |
| O=C1CCC(N2C(=O)c3cc4c(cc3C2=O)CN(CC(=O)N2CCC3(CC2)CCN(c2ccc([C@H]5c6ccc(O)cc6CC[C@H]5c5ccccc5)cc2)C3)C4)C(=O)N1 (single isomer, unassigned) | 18 nM | 58% | – |
| O=C1CCC(N2C(=O)c3cc4c(cc3C2=O)CN(CC(=O)N2CCC3(C2)CN(c2ccc([C@@H]5c6ccc(O)cc6CC[C@@H]5c5ccccc5)cc2)C3)C4)C(=O)N1 (some centres not stated) | > 1000 nM | 23% | – |
| O=C1CCC(N2C(=O)c3cc4c(cc3C2=O)CN(C2CCN(C(=O)C3CCN(c5ccc([C@@H]6c7ccc(O)cc7CC[C@@H]6c6ccccc6)cc5)CC3)CC2)C4)C(=O)N1 (some centres not stated) | 1.6 nM | 95% | Vd at 24 h [3]: 2 L/kg; clearance at 24 h [4]: 23.1 mL/min/kg; half-life at 24 h [5]: 2.7 h; AUC at 24 h [6]: 206 ng·h/mL; Cmax at 24 h [7]: 40.6 ng/mL; bioavailability at 24 h [8]: 10% |
| O=C1CCC(N2C(=O)c3cc4c(cc3C2=O)CN(CCCCC2CCN(c3ccc([C@@H]5c6ccc(O)cc6CC[C@@H]5c5ccccc5)cc3)CC2)C4)C(=O)N1 (some centres not stated) | 236 nM | 67% | – |
| O=C1CCC(N2C(=O)c3cc4c(cc3C2=O)CN(CC2CCN(c3ccc([C@@H]5c6ccc(O)cc6CC[C@@H]5c5ccccc5)cc3)CC2)C4)C(=O)N1 (some centres not stated) | 415 nM | 65% | – |
| O=C1CCC(N2C(=O)c3cc4c(cc3C2=O)CN(CC2CN(CC3CCN(c5ccc([C@@H]6c7ccc(O)cc7CC[C@@H]6c6ccccc6)cc5)CC3)C2)C4)C(=O)N1 (some centres not stated) | 21 nM | 59% | – |
| O=C1CCC(N2C(=O)c3cc4c(cc3C2=O)CN(CC(=O)N2CCCC3(CCN(c5ccc([C@@H]6c7ccc(O)cc7CC[C@@H]6c6ccccc6)cc5)CC3)C2)C4)C(=O)N1 (some centres not stated) | 393 nM | 58% | – |
| C[C@@H]1Cc2c(ccc3[nH]ncc23)[C@@H](c2ccc(N3CCC4(CCN(C(=O)CN5Cc6cc7c(cc6C5)C(=O)N(C5CCC(=O)NC5=O)C7=O)CC4)CC3)cn2)N1CC(F)F (some centres not stated) | 14 nM | 112% | – |
| O=C1CCC(N2C(=O)c3cc4c(cc3C2=O)CN(C2CCN(c3ccc([C@@H]5c6ccc(O)cc6CC[C@@H]5c5ccccc5)cc3)CC2)C4)C(=O)N1 (some centres not stated) | > 1000 nM | 32% | – |
| COc1cc(N2CCC3(CCN(C(=O)CN4Cc5cc6c(cc5C4)C(=O)N(C4CCC(=O)NC4=O)C6=O)CC3)CC2)ccc1[C@@H]1c2ccc3[nH]ncc3c2C[C@@H](C)N1CC(F)F (some centres not stated) | 1.4 nM | 82% | – |
| O=C1CCC(N2C(=O)c3cc4c(cc3C2=O)CN(C2CN(CC3CCN(c5ccc([C@@H]6c7ccc(O)cc7CC[C@@H]6c6ccccc6)cc5)CC3)C2)C4)C(=O)N1 (some centres not stated) | 989 nM | 50% | – |
| O=C1CCC(N2C(=O)c3cc4c(cc3C2=O)CN(CCCCCC2CCN(c3ccc([C@@H]5c6ccc(O)cc6CC[C@@H]5c5ccccc5)cc3)CC2)C4)C(=O)N1 (some centres not stated) | 31 nM | 106% | – |
| O=C1CCC(N2C(=O)c3cc4c(cc3C2=O)CN(CCC2CCN(c3ccc([C@@H]5c6ccc(O)cc6CC[C@@H]5c5ccccc5)cc3)CC2)C4)C(=O)N1 (some centres not stated) | 1000 nM | 50% | – |
| O=C1CCC(N2C(=O)c3cc4c(cc3C2=O)CN(C2CCN(CC3CN(c5ccc([C@@H]6c7ccc(O)cc7CC[C@@H]6c6ccccc6)cc5)C3)CC2)C4)C(=O)N1 (some centres not stated) | 295 nM | 57% | – |
| O=C1CCC(N2C(=O)c3cc4c(cc3C2=O)CN(CC(=O)N2CC3(C2)CN(c2ccc([C@@H]5c6ccc(O)cc6CC[C@@H]5c5ccccc5)cc2)C3)C4)C(=O)N1 (some centres not stated) | 11 nM | 65% | – |
| O=C1CCC(N2C(=O)c3cc4c(cc3C2=O)CN(CC(=O)N2CCC3(CCN(c5ccc([C@@H]6c7ccc(O)cc7CC[C@@H]6c6ccccc6)cc5)CC3)C2)C4)C(=O)N1 (some centres not stated) | 4.6 nM | 75% | – |
| C[C@@H]1Cc2c(ccc3[nH]ncc23)[C@@H](c2ccc(N3CCC4(CCN(C(=O)CN5Cc6cc7c(cc6C5)C(=O)N(C5CCC(=O)NC5=O)C7=O)CC4)CC3)cn2)N1CC(F)(F)F (some centres not stated) | 3.8 nM | 107% | Vd at 24 h [3]: 3.7 L/kg; clearance at 24 h [4]: 27 mL/min/kg; half-life at 24 h [5]: 2.3 h; AUC at 24 h [6]: 243 ng·h/mL; Cmax at 24 h [7]: 51.8 ng/mL; bioavailability at 24 h [8]: 14% |
| O=C1CCC(N2C(=O)c3cc4c(cc3C2=O)CN(CC(=O)N2CC3(CCN(c5ccc([C@@H]6c7ccc(O)cc7CC[C@@H]6c6ccccc6)cc5)CC3)C2)C4)C(=O)N1 (some centres not stated) | 2.8 nM | 71% | – |
| O=C1CCC(N2C(=O)c3cc4c(cc3C2=O)CN(CCCCCCC2CCN(c3ccc([C@@H]5c6ccc(O)cc6CC[C@@H]5c5ccccc5)cc3)CC2)C4)C(=O)N1 (some centres not stated) | 129 nM | 101% | – |
| O=C1CCC(N2C(=O)c3cc4c(cc3C2=O)CN(CC2CCN(C(=O)C3CN(c5ccc([C@@H]6c7ccc(O)cc7CC[C@@H]6c6ccccc6)cc5)C3)CC2)C4)C(=O)N1 (some centres not stated) | 32 nM | 87% | – |
| O=C1CCC(N2C(=O)c3cc4c(cc3C2=O)CN(C(=O)C2CCN(CC3CN(c5ccc([C@@H]6c7ccc(O)cc7CC[C@@H]6c6ccccc6)cc5)C3)CC2)C4)C(=O)N1 (some centres not stated) | > 1000 nM | 40% | – |
| O=C1CCC(N2C(=O)c3cc4c(cc3C2=O)CN(CCCC2CCN(c3ccc([C@@H]5c6ccc(O)cc6CC[C@@H]5c5ccccc5)cc3)CC2)C4)C(=O)N1 (some centres not stated) | 171 nM | 79% | – |
| O=C1CCC(N2C(=O)c3cc4c(cc3C2=O)CN(CC2CCN(C(=O)C3CCN(c5ccc([C@@H]6c7ccc(O)cc7CC[C@@H]6c6ccccc6)cc5)CC3)CC2)C4)C(=O)N1 (some centres not stated) | 13 nM | 76% | – |
| C[C@@H]1Cc2c(ccc3[nH]ncc23)[C@@H](c2c(F)cc(N3CCC4(CCN(C(=O)CN5Cc6cc7c(cc6C5)C(=O)N(C5CCC(=O)NC5=O)C7=O)CC4)CC3)cc2F)N1CC(F)(F)F (some centres not stated) | 2 nM | 88% | – |
| O=C1CCC(N2C(=O)c3cc4c(cc3C2=O)CN(CC(=O)N2CCC3(CC2)CN(c2ccc([C@@H]5c6ccc(O)cc6CC[C@@H]5c5ccccc5)cc2)C3)C4)C(=O)N1 (some centres not stated) | 1.8 nM | 68% | – |
